# Entries after “also recorded” stand apart in the source; their conditions may differ.
# Assays:
# [1] = system: KYSE220; assay: 5-Aza-dC treatment of esophageal cancer cell line, qMSP and qRT-PCR; type: cell-based; details: 1 μl of 5 mM 5-Aza-dC per ml of cells every 24 hours for 6 days
# Protocol: (§1) Samples and cell lines were treated as in Example 1. Briefly, extracted DNA was treated with bisulfite to convert unmethylated cytosines to uracils prior to MSP. Promoter methylation levels of TAC1 were determined using qMSP with the ABI 7700 Sequence Detection (Taqman) System, using primers and probes described. A normalized methylation value (NMV), reflecting the percentage of DNA methylated for the gene of interest (GoI), was defined as follows: NMV=(GoI-S/GoI-FM)/(ACTB-S/ACTB-FM), where GoI-S and GoI-FM represent GoI methylation levels in the sample and fully methylated DNAs, respectively, while ACTB-S and ACTB-FM correspond to β-Actin in the sample and fully methylated DNAs, respectively.
# (§2) To determine TAC1 mRNA levels, one-step real-time quantitative RT-PCR was performed using a Qiagen QuantiTect Probe RT-PCR Kit (Qiagen, Hilden, Germany) and the ABI 7700 Sequence Detection (Taqman) System. Primers and probes are described herein. β-Actin was used to normalize data. A standard curve was generated using serial dilutions of qPCR Reference Total RNA (Clontech, Mountainview, Calif.). The normalized mRNA value (NRV) was calculated according to the following formula for relative expression of target mRNA: Expression index=(TarS/TarC)/(ACTB-S/ACTB-C, where TarS and TarC represent levels of mRNA expression for the target gene in the sample and control mRNAs, respectively, whereas ACTB-S and ACTB-C correspond to amplified ACTB levels in the sample and control mRNAs, respectively.
# as §2, with “SST” for “TAC1”, “were the same as previously reported. 12” for “are described herein.”, “for normalization of” for “to normalize”, “NRV=(TarS/TarC)/(ACTB-S/ACTB-C),” for “Expression index=(TarS/TarC)/(ACTB-S/ACTB-C,”, “in” for “in the”
# To determine whether TAC1 inactivation was due to promoter hypermethylation in esophageal cancer, 2 esophageal cancer cell lines (KYSE220 and BIC) were subjected to 5-Aza-dC (Sigma, St. Louis, Mo.) treatment. Briefly, 1×10^5 cells/ml were seeded onto a 100 mm dish and grown for 24 h. Then, 1 μl of 5 mM 5-Aza-dC per ml of cells was added every 24 hours for 6 days. DNAs and RNAs were harvested on day 6. […]
# [2] = system: HT29; assay: quantitative MSP and real-time RT-PCR with and without 5-aza-dC treatment; type: cell-based, human; details: HT29, after 5-aza-dC treatment
# Protocol: (§3) Next, a cDNA microarray analysis of two colon cancer cell lines was performed, comparing cells treated with 5-aza-dC and untreated cells. Briefly, the colon cancer cell lines HT29 and HCT116 were seeded at a density of 4×10^5 cells per 75 cm^2 culture flask and incubated for 24 hours in growth media. The cells were then treated with 5-aza-dC in either one of the following conditions: a) 10 μM 5-aza-dC for 84 hours or b) 1 μM 5-aza-dC for 24 hours followed by 60 hours of 5-aza-dC-free growth. These two 5-aza-dC treatment regimens were employed to obtain expression data under diverse cellular conditions: the former regimen focused on maximum DNA demethylation, while the latter regimen focused on moderate DNA demethylation to minimize damage to cell viability. […] Genes with very low expression levels in post-treatment specimens were eliminated from further analyses. The cut-off criterion was defined as median signal intensity less than median background intensity plus 1 standard deviation.
# (§4) Tumor samples were snap frozen on dry ice and stored at −80° C. After thawing, DNA was extracted from samples and treated with bisulfite prior to MSP. Briefly, DNA was extracted from all samples and treated with bisulfite to convert unmethylated cytosines to uracils prior to methylation-specific PCR (MSP) as described previously in Mori, Y., et al. Cancer Res. 64:2434-38 (2004), which is incorporated by reference. DNA methylation status and levels of the 4 candidate markers were determined with real-time quantitative MSP using the ABI 7900 HT Sequence Detection (Taqman) System, as described previously in Sato F., et al., Cancer Res. 62:6820-22 (2002), which is incorporated by reference. Primers and probes for quantitative MSP of (SHP-1, DcR1, RARβ, and DcR2) are disclosed in Takahashi, T. et al, Int'l J. Cancer, 118(4): 924-931 (2005), which is incorporated by reference.
# (§5) DNA methylation status and levels of 5 genes were determined with real-time quantitative MSP using the ABI 7900 HT Sequence Detection (Taqman) System, as described previously in Sato F., et al., Cancer Res. 62:6820-22 (2002), which is incorporated by reference. Primers and probes for quantitative MSP of ENG, MAL, CAV1, TAC1, SST, NELL1 and AKAP12 are below in Tables III and IV.
# (§6) A normalized methylation value (NMV) reflecting the percentage of DNA methylated for the gene of interest (GoI), was defined as follows: NMV=(GoI-S/GoI-FM)/(ACTB-S/ACTB-FM)*100, where GoI-S and GoI-FM represented GoI methylation levels in the Sample and Fully Methylated DNAs, respectively, while ACTB-S and ACTB-FM corresponds to β-Actin in the sample and Fully Methylated (FM) DNAs, respectively.
# (§7) Increased SST and TAC1 methylation levels was also observed in cancers relative to matched normal colonic mucosae from the resection margins (FIG. 2). […] Furthermore, we examined the correlation between promoter methylation and mRNA expression levels of SST and TAC1. For this purpose, we analyzed colon cancer cell lines with and without 5-aza-dC treatment using quantitative real-time PCR. mRNA upregulation occurred for both SST and TAC1 after promoter DNA demethylation by 5-aza-dC treatment (FIG. 4).
# [3] = system: HCT116; assay: as above; type: cell-based, human; details: HCT116, after 5-aza-dC treatment
# Protocol: as §3, §4, §5, §6, §7
# [4] = system: BIC; assay: 5-Aza-dC treatment of esophageal cancer cell line, qMSP and qRT-PCR; type: cell-based
# Protocol: as §1, §2
# To determine whether TAC1 inactivation was due to promoter hypermethylation in esophageal cancer, 2 esophageal cancer cell lines (KYSE220 and BIC) were subjected to 5-Aza-dC (Sigma, St. Louis, Mo.) treatment. Briefly, 1×10^5 cells/ml were seeded onto a 100 mm dish and grown for 24 h. Then, 1 μl of 5 mM 5-Aza-dC per ml of cells was added every 24 hours for 6 days. DNAs and RNAs were harvested on day 6.
# (§8) Samples were treated as in Examples 1 and 2. Briefly, to determine AKAP12 mRNA levels, one-step real-time quantitative RT-PCR was performed using a Qiagen QuantiTect Probe RT-PCR Kit (Qiagen, Hilden, Germany) and the ABI 7700 Sequence Detection System (Applied Biosystems, Foster City, Calif.). Primers and probe for AKAP12 were as follows: […]
# (§9) β-actin was used for normalization of data. Primers and probe for β-actin were the same as previously reported. […] Normalized mRNA value (NRV) was calculated according to the following formula for relative expression of target mRNA: NRV=(TarS/TarC)/(ACTB-S/A CTB-C, where TarS and TarC represent levels of mRNA expression for the target gene in sample and control mRNAs, respectively, while ACTB-S and ACTB-C correspond to amplified ACTB levels in sample and control mRNAs, respectively.
# [5] = system: HT29 and HCT116; assay: cDNA microarray of colon cancer cell lines treated with 5-aza-dC versus untreated cells; type: cell-based, human; details: in at least one of HT29, HCT116; 10 μM 84 hours or 1 μM 24 hours then 60 hours drug-free; log ratio greater than 0.75 (1.65-fold)
# Protocol: as §3
# [6] = system: HCT116 and HT29; assay: quantitative MSP and real-time RT-PCR with and without 5-aza-dC treatment, five further genes; type: cell-based, human; details: all five genes, in a colon cancer cell line, after 5-aza-dC treatment
# Protocol: Next, a cDNA microarray analysis of two colon cancer cell lines was performed, comparing cells treated with 5-aza-dC and untreated cells. Briefly, the colon cancer cell lines HT29 and HCT116 were seeded at a density of 4×10^5 cells per 75 cm^2 culture flask and incubated for 24 hours in growth media. The cells were then treated with 5-aza-dC in either one of the following conditions: a) 10 μM 5-aza-dC for 84 hours or b) 1 μM 5-aza-dC for 24 hours followed by 60 hours of 5-aza-dC-free growth. […]
# Tumor samples were snap frozen on dry ice and stored at −80° C. […] DNA methylation status and levels of the 4 candidate markers were determined with real-time quantitative MSP using the ABI 7900 HT Sequence Detection (Taqman) System, as described previously in Sato F., et al., Cancer Res. 62:6820-22 (2002), which is incorporated by reference. Primers and probes for quantitative MSP of (SHP-1, DcR1, RARβ, and DcR2) are disclosed in Takahashi, T. et al, Int'l J. Cancer, 118(4): 924-931 (2005), which is incorporated by reference.
# DNA methylation status and levels of 5 genes were determined with real-time quantitative MSP using the ABI 7900 HT Sequence Detection (Taqman) System, as described previously in Sato F., et al., Cancer Res. 62:6820-22 (2002), which is incorporated by reference. Primers and probes for quantitative MSP of ENG, MAL, CAV1, TAC1, SST, NELL1 and AKAP12 are below in Tables III and IV. […]
# [7] = system: OE33; assay: 5-Aza-dC treatment of esophageal cancer cell line, qMSP and qRT-PCR; type: cell-based
# Protocol: as §1
# as §2, with “SST” for “TAC1”, “were the same as previously reported. 12” for “are described herein.”, “for normalization of” for “to normalize”, “NRV=(TarS/TarC)/(ACTB-S/ACTB-C),” for “Expression index=(TarS/TarC)/(ACTB-S/ACTB-C,”, “in” for “in the”
# To determine whether SST inactivation was due to promoter hypermethylation in esophageal cancer, 2 esophageal cancer cell lines (KYSE220 and OE33) were subjected to 5-Aza-dC (Sigma, St. Louis, Mo.) treatment. Briefly, 1×10^5 cells/ml were seeded onto a 100 mm dish and grown for 24 h. Then, 1 μl of 5 mM 5-Aza-dC per ml of cells was added every 24 hours for 6 days. DNA and RNA were harvested on day 6.
# as §8, §9
# [8] = 1 μl of 5 mM 5-Aza-dC per ml of cells every 24 hours for 6 days
# [9] = OE33, 1 μl of 5 mM 5-Aza-dC per ml of cells every 24 hours for 6 days
smiles,measurement,setting,value
Nc1ncn([C@H]2C[C@H](O)[C@@H](CO)O2)c(=O)n1 [5-aza-dC],NMV of SST,[1],diminished
same,NMV of TAC1,[1],diminished
same,mRNA level (NRV) of SST,[1],increased
same,mRNA level (NRV) of TAC1,[1],increased
same,SST mRNA expression index (EI),[2],upregulation
same,SST promoter methylation index (MI),[2],demethylation; also recorded: decreased
same,TAC1 mRNA expression index (EI),[2],upregulation
same,TAC1 promoter methylation index (MI),[2],demethylation; also recorded: decreased
same,SST mRNA expression index (EI),[3],upregulation
same,SST promoter methylation index (MI),[3],demethylation; also recorded: decreased
same,TAC1 mRNA expression index (EI),[3],upregulation
same,TAC1 promoter methylation index (MI),[3],demethylation; also recorded: decreased
same,NMV of TAC1,[4]; [8],diminished
same,mRNA level (NRV) of TAC1,[4]; [8],increased
same,NMV of AKAP12,[4]; after 5-Aza-dC treatment,diminished
same,mRNA level (NRV) of AKAP12,[4]; after 5-Aza-dC treatment,increased
same,genes upregulated after 5-aza-dC treatment,[5],861 genes
same,"mRNA of NELL1, CAV1, AKAP12, ENG and MAL",[6],increased; also recorded: upregulation
same,"promoter region DNA methylation of NELL1, CAV1, AKAP12, ENG and MAL",[6],demethylation; also recorded: decreased
same,NMV of AKAP12,"[7]; OE33, after 5-Aza-dC treatment",diminished
same,mRNA level (NRV) of AKAP12,"[7]; OE33, after 5-Aza-dC treatment",increased
same,NMV of SST,[7]; [9],diminished
same,mRNA level (NRV) of SST,[7]; [9],increased

# From patent US20080081333A1, “METHYLATED PROMOTERS AS BIOMARKERS OF COLON CANCER” (UNIVERSITY OF MARYLAND, BALTIMORE, priority 2006, published 2008)
